Calls of active or inactive are those of the source.
Key:
[1] = target: Beta-galactosidase (Escherichia coli, UniProt Q8VNN2); assay: Dose response counterscreen for EBI2 assay utilizing the enzyme, b-galactosidase.; type: functional
[2] = target: Matrix metalloproteinase-14 (Homo sapiens, UniProt P50281); assay: Dose Response confirmation of uHTS hits for a small molecule inhibitors of MT1-MMP activation in a fluorescence assay set 1.; type: functional
[3] = target: Nonstructural protein 1 (Influenza A virus, UniProt Q194T2); type: functional, Influenza A virus (A/California/07/2009(H1N1))
[4] = target: T1, Fatty acid synthase (Homo sapiens, UniProt P49327); assay: inhibition of human FAS-TE enzyme activity – biochemical, kinetic fluorescence intensity, dose response (AID 624326); type: functional;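 note: rate of fluorescence rise from hydrolysis of a fluorogenic O-methyl fluorescein ester substrate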
[5] = target: T1, Fatty acid synthase; assay: inhibition of human FAS-TE enzyme activity – biochemical, endpoint fluorescence intensity, uHTS hits, dose response (AID 624327); type: functional;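 note: fluorescence from hydrolysis of an O-methyl fluorescein acyl ester substrate by the enzyme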
[6] = general mammalian cell viability loss – inhibitor set, cherry-pick, set 2, cytotoxicity control for miR-122 modulator project, dose response (AID 720697); type: functional, cell-based
[7] = target: Peroxisome proliferator-activated receptor gamma/Nuclear receptor corepressor 2 (Homo sapiens, UniProt P37231+Q9Y618); assay: Counterscreen for NR2E3 inverse agonists: TR-FRET-based biochemical high throughput dose response assay to identify inverse agonists of the interaction between peroxisome proliferator-activated receptor gamma (PPARg) and nuclear receptor co-repressor 2 (NCOR2).; type: functional
[8] = target: Photoreceptor-specific nuclear receptor (Homo sapiens, UniProt Q9Y5X4); assay: ligands suppressing NR2E3 nuclear receptor activity – biochemical, TR-FRET, dose response (AID 463256); type: functional
[9] = HGIII-sPLA2 enzyme inhibition potency – biochemical, QFRET, IC50, dose response (AID 743457);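 note: green fluorescence rise as the enzyme cleaves BODIPY PC-A2 in liposomes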
[10] = target: Arf-GAP with SH3 domain, ANK repeat and PH domain-containing protein 1 (Homo sapiens, UniProt Q9ULH1); type: functional;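 note: biochemical fluorescence polarization dose–response screen measuring inhibition of ASAP1; ASAP1 GAP domain stimulating GTP hydrolysis by truncated human ARF1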
[11] = Trypanosoma cruzi growth suppression in host cells – NIH3T3 host cells, beta-gal luminescence, confirmation (AID 2044); type: functional, cell-based;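 note: intracellular parasites grown in NIH/3T3 mouse fibroblasts as host cells; luminescent beta-galactosidase reporter signal from transgenic T. cruzi replicating inside host cells; inhibitors lower the luminescence signal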
[12] = NIH3T3 cell viability loss – ATP luminescence, mouse fibroblasts, counter-screen, dose response (AID 2010); type: functional, cell-based;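 note: cells exposed to compound for about 90 hours before reading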
[13] = target: T2, Disintegrin and metalloproteinase domain-containing protein 17 (Homo sapiens, UniProt P78536); assay: exosite inhibitors of ADAM17, dose response, biochemical (AID 743260)
[14] = inhibition of ADAM10 peptide cleavage – biochemical, FRET peptide substrate, recombinant human ADAM10, selectivity assay for ADAM17 exosite inhibitor project, dose response (AID 743259);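 note: ADAM10 enzyme cleaving a FRET peptide substrate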
[15] = target: Metabotropic glutamate receptor 5 (Rattus norvegicus, UniProt P31424); assay: Identification of a glycine sulfonamide based non-MPEP site positive allosteric potentiator (PAM) of mGlu5 (calcium_assay).; type: functional
[16] = target: 1-phosphatidylinositol 4,5-bisphosphate phosphodiesterase gamma-1 (Homo sapiens, UniProt P19174); assay: Counterscreen for inhibitors of phospholipase C isozymes (PLC-B3): Fluorescence-based biochemical high throughput dose response assay to identify inhibitors of phospholipase C isozymes (PLC-gamma1).
[17] = target: 1-phosphatidylinositol 4,5-bisphosphate phosphodiesterase beta-3 (Homo sapiens, UniProt Q01970); assay: Fluorescence-based biochemical high throughput dose response assay to identify inhibitors of phospholipase C isozymes (PLC-B3).
[18] = target: T3, Carboxy-terminal domain RNA polymerase II polypeptide A small phosphatase 1 (Homo sapiens, UniProt Q9GZU7); assay: CTDSP1 inhibitors, concentration-response, biochemical, absorbance readout, ultra-high-throughput screen actives (AID 540297); type: functional
T3 sequence (Q9GZU7 whole entry): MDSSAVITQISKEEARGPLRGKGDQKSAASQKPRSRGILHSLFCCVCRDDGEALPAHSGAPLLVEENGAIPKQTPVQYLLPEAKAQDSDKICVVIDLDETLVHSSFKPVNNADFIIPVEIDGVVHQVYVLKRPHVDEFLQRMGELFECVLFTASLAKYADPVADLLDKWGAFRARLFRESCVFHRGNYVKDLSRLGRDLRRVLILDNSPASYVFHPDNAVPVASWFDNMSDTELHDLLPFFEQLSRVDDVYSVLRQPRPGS

[19] = blockade of melanocortin 4 receptor signaling – cell-based, plate reader, cherry pick, counter-screen for LGR2 antagonist project, dose response (AID 743444); type: functional;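 note: transfected HEK 293 cells stimulated with alpha-MSH peptide; potency of inhibitors of the alpha-MSH evoked signal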
[20] = blockers of bursicon-stimulated LGR2 cAMP reporter – cell-based, HEK293, CRE-luciferase reporter, cherry pick, set 2, dose response (AID 743343); type: functional;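 note: transfected cells were stimulated with diluted bursicon conditioned medium after compound addition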
[21] = HEK-293T viability loss after treatment – luminescence, T-cell screen hits, cytotoxicity control for TCR NF-kB inhibitor project, dose response (AID 489026); type: functional, cell-based;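 note: cells exposed to compound about 14 hours before the viability readout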
[22] = viability loss in HEK293 cells – cell-based, plate reader, cherry-picked samples, cytotoxicity control, dose response (AID 743446); type: functional
[23] = target: Paired box protein Pax-8 (Homo sapiens, UniProt Q06710); assay: PAX8 transcriptional activity inhibition in RMG-I – RMG-I cells, luciferase, cherry-pick, dose response (AID 687027); type: functional, cell-based;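 note: luciferase reporter driven by Pax8 target thyroperoxidase promoter measured by SteadyGlo luminescence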
[24] = reduction of Shn3 3'UTR-driven luciferase in osteoblasts – cell-based, Clone20 osteoblasts, firefly luciferase, cherry-picked, dose response (AID 624132); type: functional;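 note: firefly luciferase luminescence from reporter carrying the Shn3 3'UTR in osteoblasts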
[25] = loss of viability in HepG2 cells – cell-based, CellTiter-Glo, cherry-picked, cytotoxicity control for Shn3 inhibitor project, dose response (AID 624134); type: functional
[26] = Shn3 3'UTR reporter signal decrease – cell-based, Clone20 osteoblasts, firefly luciferase, cherry-pick, set 2, Schnurri-3 inhibitor project, dose response (AID 720490); type: functional;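 note: actives lower the luminescence signal as inhibitors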
[27] = toxicity toward HepG2 liver cells – cell-based, plate reader, cherry-pick, antagonist series, cytotoxicity control, dose response (AID 743416); type: functional
[28] = target: T4, Heat shock factor protein 1 (Mus musculus, UniProt P38532); assay: decrease of HSF1-responsive luciferase luminescence – cell-based, NIH3T3, dose retest, confirmation (AID 2382); type: functional;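 note: NIH3T3 fibroblasts with HSF1-driven luciferase reporter stressed by proteasome inhibitor MG132; luminescence from HSF1-driven luciferase expression after 8 hours of MG132 stress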
T4 sequence (P38532 whole entry): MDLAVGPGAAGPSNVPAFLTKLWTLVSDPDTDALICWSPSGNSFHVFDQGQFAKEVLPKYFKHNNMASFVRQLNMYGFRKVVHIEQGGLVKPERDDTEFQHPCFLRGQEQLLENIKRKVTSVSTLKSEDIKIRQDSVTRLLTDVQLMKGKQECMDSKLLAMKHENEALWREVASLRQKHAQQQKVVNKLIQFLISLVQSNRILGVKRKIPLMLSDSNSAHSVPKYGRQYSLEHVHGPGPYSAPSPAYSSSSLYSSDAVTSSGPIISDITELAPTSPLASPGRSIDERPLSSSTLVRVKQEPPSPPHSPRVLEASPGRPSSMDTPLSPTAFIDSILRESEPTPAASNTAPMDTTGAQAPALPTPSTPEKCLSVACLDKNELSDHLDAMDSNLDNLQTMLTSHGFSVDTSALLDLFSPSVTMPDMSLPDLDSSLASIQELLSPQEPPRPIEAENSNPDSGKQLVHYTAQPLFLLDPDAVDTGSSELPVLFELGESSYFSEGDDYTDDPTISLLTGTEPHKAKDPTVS

[29] = potency of ADAM10 substrate cleavage blockers – biochemical, QFRET, dose response (AID 743254);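 note: ADAM10 enzyme with the DM2 quenched FRET peptide as substrate; EDANS fluorescence gain as the protease cuts the substrate; inhibitor potency against ADAM10 proteolytic activity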
[30] = microbe, parasite or virus in culture; type: functional; conditions: Mycobacterium tuberculosis
[31] = target: T2, Disintegrin and metalloproteinase domain-containing protein 17; assay: inhibition of ADAM17 substrate cleavage – biochemical, quenched FRET substrate, counter-screen for ADAM10 exosite inhibitor project, dose response (AID 743253)

T2 sequence (P78536 whole entry, the tested form may be a part): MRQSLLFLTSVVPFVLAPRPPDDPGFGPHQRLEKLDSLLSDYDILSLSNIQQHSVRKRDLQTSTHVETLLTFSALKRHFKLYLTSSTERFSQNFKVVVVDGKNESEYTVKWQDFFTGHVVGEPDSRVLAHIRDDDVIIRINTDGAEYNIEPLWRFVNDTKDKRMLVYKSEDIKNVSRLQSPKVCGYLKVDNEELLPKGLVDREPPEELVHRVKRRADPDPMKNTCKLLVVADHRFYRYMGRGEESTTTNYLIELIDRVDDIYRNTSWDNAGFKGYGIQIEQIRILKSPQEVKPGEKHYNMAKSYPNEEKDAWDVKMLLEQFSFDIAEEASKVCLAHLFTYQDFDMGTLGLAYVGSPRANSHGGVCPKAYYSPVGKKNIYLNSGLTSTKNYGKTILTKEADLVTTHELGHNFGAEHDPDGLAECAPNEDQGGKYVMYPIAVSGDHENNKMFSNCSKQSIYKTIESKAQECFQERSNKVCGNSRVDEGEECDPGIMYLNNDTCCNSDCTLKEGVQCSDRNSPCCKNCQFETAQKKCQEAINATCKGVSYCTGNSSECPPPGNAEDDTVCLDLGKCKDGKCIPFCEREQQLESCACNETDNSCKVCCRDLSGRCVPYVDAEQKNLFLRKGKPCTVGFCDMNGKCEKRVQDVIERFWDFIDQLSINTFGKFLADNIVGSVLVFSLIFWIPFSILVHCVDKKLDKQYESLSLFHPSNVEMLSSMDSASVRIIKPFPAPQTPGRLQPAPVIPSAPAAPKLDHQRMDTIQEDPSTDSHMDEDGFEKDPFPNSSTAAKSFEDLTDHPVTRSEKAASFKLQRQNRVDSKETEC
T1 sequence (P49327 whole entry): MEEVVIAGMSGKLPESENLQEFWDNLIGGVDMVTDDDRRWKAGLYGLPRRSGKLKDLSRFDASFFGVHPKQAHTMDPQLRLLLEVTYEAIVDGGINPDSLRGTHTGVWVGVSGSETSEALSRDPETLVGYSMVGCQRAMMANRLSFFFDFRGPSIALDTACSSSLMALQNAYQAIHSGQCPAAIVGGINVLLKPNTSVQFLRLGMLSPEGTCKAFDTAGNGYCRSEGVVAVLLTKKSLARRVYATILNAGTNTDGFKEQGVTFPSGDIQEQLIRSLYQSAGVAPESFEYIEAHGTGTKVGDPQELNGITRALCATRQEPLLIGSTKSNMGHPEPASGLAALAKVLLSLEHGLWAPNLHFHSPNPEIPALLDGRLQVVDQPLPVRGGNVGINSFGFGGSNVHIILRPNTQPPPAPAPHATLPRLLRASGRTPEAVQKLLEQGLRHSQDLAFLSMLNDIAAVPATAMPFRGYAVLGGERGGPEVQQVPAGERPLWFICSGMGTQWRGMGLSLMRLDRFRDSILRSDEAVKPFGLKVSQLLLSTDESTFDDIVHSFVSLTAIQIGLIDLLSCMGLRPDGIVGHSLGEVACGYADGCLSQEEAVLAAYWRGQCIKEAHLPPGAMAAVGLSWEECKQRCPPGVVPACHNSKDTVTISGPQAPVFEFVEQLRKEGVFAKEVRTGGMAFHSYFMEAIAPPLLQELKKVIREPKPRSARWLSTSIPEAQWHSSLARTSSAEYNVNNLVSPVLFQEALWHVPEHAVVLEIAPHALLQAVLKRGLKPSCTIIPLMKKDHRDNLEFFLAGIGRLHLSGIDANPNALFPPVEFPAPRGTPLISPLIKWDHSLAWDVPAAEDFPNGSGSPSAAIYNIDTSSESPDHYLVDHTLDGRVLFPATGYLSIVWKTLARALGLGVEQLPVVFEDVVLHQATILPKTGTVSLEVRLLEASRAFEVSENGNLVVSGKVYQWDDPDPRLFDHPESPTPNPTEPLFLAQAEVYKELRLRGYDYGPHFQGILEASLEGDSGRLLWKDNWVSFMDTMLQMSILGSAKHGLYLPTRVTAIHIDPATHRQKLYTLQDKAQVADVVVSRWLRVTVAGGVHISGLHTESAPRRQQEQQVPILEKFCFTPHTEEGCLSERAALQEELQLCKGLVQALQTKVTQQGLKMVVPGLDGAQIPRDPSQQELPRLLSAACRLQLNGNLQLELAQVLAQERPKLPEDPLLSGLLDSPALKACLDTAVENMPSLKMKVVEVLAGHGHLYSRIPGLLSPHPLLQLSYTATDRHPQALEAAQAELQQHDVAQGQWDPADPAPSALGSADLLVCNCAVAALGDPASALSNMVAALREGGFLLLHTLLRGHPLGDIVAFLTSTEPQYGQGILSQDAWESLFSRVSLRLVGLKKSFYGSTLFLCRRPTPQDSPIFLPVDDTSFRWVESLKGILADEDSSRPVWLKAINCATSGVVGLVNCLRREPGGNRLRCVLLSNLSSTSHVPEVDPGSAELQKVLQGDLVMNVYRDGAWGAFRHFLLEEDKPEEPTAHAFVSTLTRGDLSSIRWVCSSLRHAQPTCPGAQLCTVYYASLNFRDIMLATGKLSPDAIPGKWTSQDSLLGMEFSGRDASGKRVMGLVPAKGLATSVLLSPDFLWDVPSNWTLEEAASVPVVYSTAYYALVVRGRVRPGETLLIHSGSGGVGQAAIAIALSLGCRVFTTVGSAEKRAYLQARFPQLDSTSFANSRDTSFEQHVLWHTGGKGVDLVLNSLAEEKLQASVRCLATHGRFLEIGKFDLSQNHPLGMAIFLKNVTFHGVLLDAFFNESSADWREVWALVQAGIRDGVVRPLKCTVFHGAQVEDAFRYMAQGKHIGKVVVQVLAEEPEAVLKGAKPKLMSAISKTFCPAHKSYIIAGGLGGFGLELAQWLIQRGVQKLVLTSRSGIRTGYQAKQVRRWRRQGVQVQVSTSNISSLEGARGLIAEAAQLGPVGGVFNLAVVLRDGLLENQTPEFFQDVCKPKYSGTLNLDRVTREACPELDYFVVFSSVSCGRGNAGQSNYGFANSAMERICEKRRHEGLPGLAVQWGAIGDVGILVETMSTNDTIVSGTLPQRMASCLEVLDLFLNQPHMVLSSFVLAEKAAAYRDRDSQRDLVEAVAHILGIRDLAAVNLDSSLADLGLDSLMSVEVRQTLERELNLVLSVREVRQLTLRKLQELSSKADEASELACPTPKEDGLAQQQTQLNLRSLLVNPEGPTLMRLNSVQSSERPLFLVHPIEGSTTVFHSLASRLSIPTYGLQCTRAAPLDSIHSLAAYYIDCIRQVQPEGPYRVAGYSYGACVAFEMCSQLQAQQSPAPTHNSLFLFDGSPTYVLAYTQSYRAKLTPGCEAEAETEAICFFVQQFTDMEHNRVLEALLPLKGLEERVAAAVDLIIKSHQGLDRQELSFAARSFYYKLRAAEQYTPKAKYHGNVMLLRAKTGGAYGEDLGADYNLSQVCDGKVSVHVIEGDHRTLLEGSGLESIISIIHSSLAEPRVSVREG
Chain of Paired box protein Pax-8 (Q06710 whole entry): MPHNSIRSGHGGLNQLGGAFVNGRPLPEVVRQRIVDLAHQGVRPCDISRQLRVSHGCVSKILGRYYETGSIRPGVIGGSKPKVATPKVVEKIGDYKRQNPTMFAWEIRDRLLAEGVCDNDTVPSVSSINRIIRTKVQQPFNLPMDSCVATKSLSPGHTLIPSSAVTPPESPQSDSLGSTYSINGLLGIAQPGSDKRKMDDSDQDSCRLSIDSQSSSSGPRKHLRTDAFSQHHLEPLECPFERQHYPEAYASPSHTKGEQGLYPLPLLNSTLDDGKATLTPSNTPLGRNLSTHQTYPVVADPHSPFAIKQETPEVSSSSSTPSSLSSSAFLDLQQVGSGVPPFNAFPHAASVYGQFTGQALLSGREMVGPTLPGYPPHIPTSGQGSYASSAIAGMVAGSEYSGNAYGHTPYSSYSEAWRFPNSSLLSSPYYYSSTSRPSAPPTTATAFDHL
Chain of 1-phosphatidylinositol 4,5-bisphosphate phosphodiesterase beta-3 (Q01970 whole entry, the tested form may be a part): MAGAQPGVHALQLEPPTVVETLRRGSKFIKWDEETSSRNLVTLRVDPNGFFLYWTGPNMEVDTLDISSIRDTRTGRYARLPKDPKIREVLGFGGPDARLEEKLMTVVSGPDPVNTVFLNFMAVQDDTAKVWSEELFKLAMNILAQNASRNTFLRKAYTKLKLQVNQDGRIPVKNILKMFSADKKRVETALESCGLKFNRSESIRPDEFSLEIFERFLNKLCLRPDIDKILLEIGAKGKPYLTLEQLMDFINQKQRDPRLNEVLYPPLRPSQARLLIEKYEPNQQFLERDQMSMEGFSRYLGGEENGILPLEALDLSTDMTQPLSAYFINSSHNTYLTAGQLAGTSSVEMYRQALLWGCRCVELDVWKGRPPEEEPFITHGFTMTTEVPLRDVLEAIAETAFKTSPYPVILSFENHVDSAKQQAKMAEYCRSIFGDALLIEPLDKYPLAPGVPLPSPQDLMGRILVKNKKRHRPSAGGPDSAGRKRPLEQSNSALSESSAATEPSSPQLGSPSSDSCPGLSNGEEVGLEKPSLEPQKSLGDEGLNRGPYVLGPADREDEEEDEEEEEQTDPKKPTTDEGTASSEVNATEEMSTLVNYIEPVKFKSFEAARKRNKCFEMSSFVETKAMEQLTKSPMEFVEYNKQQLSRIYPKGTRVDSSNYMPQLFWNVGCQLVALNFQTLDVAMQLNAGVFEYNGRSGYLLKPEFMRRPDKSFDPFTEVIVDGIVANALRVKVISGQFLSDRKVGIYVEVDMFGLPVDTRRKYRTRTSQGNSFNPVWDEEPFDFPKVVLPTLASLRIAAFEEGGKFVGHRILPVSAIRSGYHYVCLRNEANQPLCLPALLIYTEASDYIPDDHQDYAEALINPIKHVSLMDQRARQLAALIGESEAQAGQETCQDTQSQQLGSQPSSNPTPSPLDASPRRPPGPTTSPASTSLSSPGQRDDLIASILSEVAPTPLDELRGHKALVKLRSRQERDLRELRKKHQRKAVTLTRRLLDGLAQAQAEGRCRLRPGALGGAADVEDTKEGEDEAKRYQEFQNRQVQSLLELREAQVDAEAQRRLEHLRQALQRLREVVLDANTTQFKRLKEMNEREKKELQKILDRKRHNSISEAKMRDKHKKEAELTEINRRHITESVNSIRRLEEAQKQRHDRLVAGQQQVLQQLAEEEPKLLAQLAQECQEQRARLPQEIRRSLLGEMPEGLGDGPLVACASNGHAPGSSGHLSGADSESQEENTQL

Which IC50 [1] does the source give for `COc1ccccc1N1CCN(C(=O)c2cc(=O)c3cc(C)ccc3o2)CC1` here?
The IC50 was > 80 µM (inactive).

Which results are given for `CN1C(=O)/C(=C\c2cc(N=Nc3ccccc3)ccc2O)SC1=S`?
IC50 [2]: > 80 µM (inactive); IC50 [3]: 4.51 µM (active); IC50 [4]: 24.4 µM (inactive); IC50 [5]: 33.7 µM (inactive)

For `CCNC(=O)CCC(=O)Nc1cc(Cl)ccc1C`, which AC50 [6] is on record?
The AC50 was 9 µM (active).

Which results are given for `CCn1c(S)nnc1-c1csc2c1CCCC2`?
IC50 [7]: > 39.8 µM (not active); IC50 [8]: 25.2 µM (not active); IC50 [9]: > 122 µM (inactive)

With `CCc1cccc2c(C(=O)CN3C(=O)NC(C)(c4cccc5ccccc45)C3=O)c[nH]c12` (stereo unspecified) as the compound, how does the IC50 [10] read?
The IC50 was 165 µM (inactive).

What about the EC50 [11] of the same compound?
Its EC50 is 1.75 µM (active).

What about the EC50 [12] of the same compound?
Its EC50 is > 30 µM (not active).

With `Cc1ccccc1NC1=NC(=O)/C(=C/c2cccn2C)S1` as the compound, how does the IC50 [13] read?
The IC50 was > 69.5 µM (inactive).

What about the IC50 [14] of the same compound?
Its IC50 is > 69.5 µM (inactive).

With `O=S(=O)(c1ccc(F)cc1)N1CCCC(c2nc(-c3ccc(F)cc3)no2)C1` (stereo unspecified) as the compound, how does the EC50 [15] read?
Its EC50 is 4.53 µM.

Which IC50 [16] does the source give for `Cc1cccc(NC(=O)Cn2c(O)c(N=NC(=O)c3ccccc3O)c3ccccc32)c1` here?
Its IC50 is > 123 µM (inactive).

What about the IC50 [17] of the same compound?
The IC50 was > 123 µM (inactive).

And the IC50 [18]?
Its IC50 is 1.99 µM (active).

Which AC50 [19] does the source give for `Cc1nc(SCC(=O)Nc2nc3ccccc3s2)c(C#N)c(C)c1C` here?
Its AC50 is < 0.068 µM (active).

And the AC50 [20]?
The AC50 was 0.0912 µM (active).

What about the IC50 [21] of the same compound?
The IC50 was > 80 µM (inactive).

And the AC50 [22]?
The AC50 was > 52 µM (inactive).

What about the AC50 [23] of the same compound?
The AC50 was < 0.26 µM (active).

What about the AC50 [24] of the same compound?
The AC50 was < 0.26 µM (active).

What about the AC50 [25] of the same compound?
Its AC50 is > 70 µM (inactive).

And the AC50 [26]?
The AC50 was < 0.135 µM (active).

And the AC50 [27]?
The AC50 was > 52 µM (inactive).

And the EC50 [28]?
The EC50 was < 0.16 µM (active).

With `Cc1ccc(C)c(S(=O)(=O)N2CCC(c3nc(O)c4nnn(Cc5ccc6c(c5)OCCO6)c4n3)CC2)c1` as the compound, how does the IC50 [29] read?
Its IC50 is > 69.5 µM (inactive).

And the CC50 [30]?
The CC50 was > 40 µM (active).

And the IC50 [31]?
Its IC50 is > 69.5 µM (inactive).
